The values that follow are results of earlier work, collected in patent EP3616687A2, “PREPARATION FOR THE TREATMENT AND/OR PROPHYLAXIS OF INFLAMMATORY INFECTIOUS DISEASES” (Lovtsov, Valentin Vyacheslavovich, priority 2017, dated 2018).

The conditions of this data set: clinical microbiological studies.

The structures appear in SMILES notation.

For `[H]/N=C(\N/C(=N/[H])NCCCCCCNC(=N)NC(=N)Nc1ccc(Cl)cc1)Nc1ccc(Cl)cc1` [Chlorhexidine], the “antibacterial activity, fold higher compared to Miramistine” value is 8 fold.
